Converted amounts (≈) assume the structure as drawn. Where two headings read alike, the source gives them in different places. Marks after values point to notes of the source that are not given here.
Experiments:
[1] = system: V23 1322 Burkholderia cepacia; assay: MIC assay, CAMHB with alginate oligomer, no visible growth; format: cell-based; settings: Table 5, V23 MDR Burk cep
[2] = system: Acinetobacter baumannii MDR ACB from Libya (V4); assay: as above; format: cell-based; settings: for MIC: Acinetobacter baumannii, read-out: MIC
Excerpt: (§1) The study described in Example 1 was repeated with the following strains of bacteria and antibiotics as detailed in Tables 4, 5 and 6.
The study described in Example 1 was repeated with the following strains of Acinetobacter baumannii, antibiotics and M-block alginate oligomer in place of OligoG CF-5/20 as detailed in Table 7. The M-block oligomer is 100% M with a DPn of 15 to 18,

[3] = system: Acinetobacter baumannii (MDR ACB, Libya, V4); assay: MIC-assay, Mueller-Hinton broth with G-block alginate, 384-well, OD600
[4] = system: strains of E. coli displaying MDR phenotypes; assay: MIC-assay, Mueller-Hinton broth with G-block alginate, 384-well, OD600 (Table 11); format: cell-based; settings: Escherichia coli, Escherichia coli (5702, Wales, V11) MDR, read-out: MIC
Excerpt: (§2) Minimum inhibitory concentration (MICs) of different antibiotics for strains of E. coli and Providencia stuartii displaying MDR phenotypes in the presence of varying concentrations of OligoCF-5/20 (0-10%). (MIC values are expressed in μg ml^−1).

V11 5702 (Wales) E. coli = assay: MIC assay, CAMHB with alginate oligomer, no visible growth; format: cell-based; settings: Table 5; V11 MDR E.coli; OligoCF-5/20 +2% G
[5] = system: Burkholderia cepacia (1322, V23); assay: MIC-assay, Mueller-Hinton broth with G-block alginate, 384-well, OD600
[6] = system: V9 (Egypt) Acinetobacter baumannii; assay: MIC assay, CAMHB with alginate oligomer, no visible growth; format: cell-based; settings: Table 5, V9 MDR Acin. baum
[7] = system: Pseudomonas aeruginosa MDR R22 from China (V1); assay: as above; format: cell-based; settings: for MIC: Pseudomonas aeruginosa, Table 1, V1 MDR R22 PA, read-out: MIC
Excerpt: as §1

Streptococcus oralis = assay: MIC-assay, Mueller-Hinton broth with G-block alginate, 384-well, OD600 (Table 12); format: cell-based; settings: Streptococcus oralis (5610, V17) MDR
Excerpt: (§3) Minimum inhibitory concentration (MICs) of different antibiotics for strains of Streptococcus oralis and Staphylococcus aureus (MRSA) displaying MDR phenotypes in the presence of varying concentrations of OligoCF-5/20 (0-10%). (MIC values are expressed in μg ml^−1).

[8] = system: Staphylococcus aureus (MRSA) U50; assay: as above; format: cell-based; settings: MRSA 1040s, U50 MDR, read-out: MIC
Excerpt: as §3

[9] = system: strains of Klebsiella pneumoniae displaying MDR phenotypes; assay: MIC-assay, Mueller-Hinton broth with G-block alginate, 384-well, OD600 (Table 10); format: cell-based; settings: read-out: MIC
Excerpt: Minimum inhibitory concentration (MICs) of different antibiotics for strains of Klebsiella pneumoniae displaying MDR phenotypes in the presence of varying concentrations of OligoCF-5/20 (0-10%). (MIC values are expressed in μg ml^−1).

MDR Providencia stuartii = assay: MIC-assay, Mueller-Hinton broth with G-block alginate, 384-well, OD600 (Table 11); format: cell-based; settings: Providencia stuartii (IR57 India, V7) MDR
Excerpt: as §2

[10] = Table 9, G-block (OligoCF-5/20) 0%
[11] = Table 9, G-block (OligoCF-5/20) 2%
[12] = Table 9, G-block (OligoCF-5/20) 6%
[13] = Table 9, G-block (OligoCF-5/20) 10%
[14] = Table 8, G-block (OligoCF-5/20) 0%
[15] = Table 8, G-block (OligoCF-5/20) 2%
[16] = Table 8, G-block (OligoCF-5/20) 6%
[17] = Table 8, G-block (OligoCF-5/20) 10%
[18] = G-block (OligoCF-5/20) 0%, read-out: MIC
[19] = G-block (OligoCF-5/20) 6%, read-out: MIC
[20] = G-block (OligoCF-5/20) 10%, read-out: MIC
[21] = Klebsiella pneumoniae (5712, Wales, V12) MDR, G-block (OligoCF-5/20) 0%
[22] = Klebsiella pneumoniae (5712, Wales, V12) MDR, G-block (OligoCF-5/20) 2%
[23] = Klebsiella pneumoniae (5712, Wales, V12) MDR, G-block (OligoCF-5/20) 6%
[24] = Klebsiella pneumoniae (5712, Wales, V12) MDR, G-block (OligoCF-5/20) 10%
[25] = Klebsiella pneumoniae (IR25, India, V6) MDR, G-block (OligoCF-5/20) 2%
[26] = Klebsiella pneumoniae (IR25, India, V6) MDR, G-block (OligoCF-5/20) 6%
[27] = Klebsiella pneumoniae (IR25, India, V6) MDR, G-block (OligoCF-5/20) 10%
[28] = Klebsiella pneumoniae (K3, India, V8) MDR, G-block (OligoCF-5/20) 0%
[29] = Klebsiella pneumoniae (K3, India, V8) MDR, G-block (OligoCF-5/20) 2%
[30] = Klebsiella pneumoniae (K3, India, V8) MDR, G-block (OligoCF-5/20) 6%
[31] = Klebsiella pneumoniae (K3, India, V8) MDR, G-block (OligoCF-5/20) 10%

## O=C(O)c1cn(C2CC2)c2cc(N3CCNCC3)c(F)cc2c1=O [Ciprofloxacin]
[1]; Burkholderia cepacia, OligoCF-5/20 0G, read-out: MIC
  MIC: 64 µg/mL (≈ 193 µM)
[1]; OligoCF-5/20 +2% G
  MIC: 64 µg/mL (≈ 193 µM)
[1]; OligoCF-5/20 +6% G
  MIC: 64 µg/mL (≈ 193 µM)
[1]; OligoCF-5/20 +10% G
  MIC: 32^† μg/ml
[2]; Table 1, V4 ACB (Libya), OligoCF-5/20 0G
  MIC: 64 µg/mL (≈ 193 µM)
[2]; Table 1, V4 ACB (Libya), OligoCF-5/20 +2% G
  MIC: 32 µg/mL (≈ 96.6 µM)
[2]; Table 1, V4 ACB (Libya), OligoCF-5/20 +6% G
  MIC: 16 µg/mL (≈ 48.3 µM)
[2]; Table 1, V4 ACB (Libya), OligoCF-5/20 +10% G
  MIC: 16 µg/mL (≈ 48.3 µM)
[2]; Table 7, V4 MDR Acin baum (Libya), M-block oligomer 0M
  MIC: 64 µg/mL (≈ 193 µM)
[2]; Table 7, V4 MDR Acin baum (Libya), M-block oligomer +2% M
  MIC: 64 µg/mL (≈ 193 µM)
[2]; Table 7, V4 MDR Acin baum (Libya), M-block oligomer +6% M
  MIC: 64 µg/mL (≈ 193 µM)
[2]; Example 1, Acinetobacter baumannii isolate
  effect in combination with alginate oligomers: more positive effect
[2]; Table 3, MDR Acinetobacter baumannii isolate
  change of MIC in combination with azithromycin by alginate oligomer: reduced
[3]; [10]
  MIC: 4 µg/mL (≈ 12.1 µM)
[3]; [11]
  MIC: 1 µg/mL (≈ 3.02 µM)
[3]; [12]
  MIC: 1 µg/mL (≈ 3.02 µM)
[3]; [13]
  MIC: 0.5 µg/mL (≈ 1.51 µM)
[4]; G-block (OligoCF-5/20) 0%
  MIC: > 8 µg/mL
[4]; G-block (OligoCF-5/20) 2%
  MIC: > 8 µg/mL
[4]; G-block (OligoCF-5/20) 6%
  MIC: > 8 µg/mL
[4]; G-block (OligoCF-5/20) 10%
  MIC: > 8 µg/mL
V11 5702 (Wales) E. coli
  MIC: 64^† μg/ml
[5]; [14]
  MIC: > 8 µg/mL
[5]; [15]
  MIC: > 8 µg/mL
[5]; [16]
  MIC: > 8 µg/mL
[5]; [17]
  MIC: > 8 µg/mL
[6]; OligoCF-5/20 0G
  MIC: -64^† μg/ml
[6]; OligoCF-5/20 +2% G
  MIC: 32^† μg/ml
[6]; OligoCF-5/20 +6% G
  MIC: 32^† μg/ml
[6]; OligoCF-5/20 +10% G
  MIC: 32^† μg/ml
[7]; OligoCF-5/20 0G
  MIC: 16 µg/mL (≈ 48.3 µM)
[7]; OligoCF-5/20 +2% G
  MIC: 16 µg/mL (≈ 48.3 µM)
[7]; OligoCF-5/20 +6% G
  MIC: 8 µg/mL (≈ 24.1 µM)
[7]; OligoCF-5/20 +10% G
  MIC: 4 µg/mL (≈ 12.1 µM)
[7]; Table 3, MDR R22 PA strain
  change of MIC in combination with azithromycin by alginate oligomer: reduced
Streptococcus oralis; [18]
  MIC: 32 µg/mL (≈ 96.6 µM)
Streptococcus oralis; G-block (OligoCF-5/20) 2%
  MIC: < 0.0625 µg/mL
Streptococcus oralis; [19]
  MIC: 2 µg/mL (≈ 6.04 µM)
Streptococcus oralis; [20]
  MIC: 2 µg/mL (≈ 6.04 µM)
[8]; G-block (OligoCF-5/20) 0%
  MIC: 32 µg/mL (≈ 96.6 µM)
[8]; G-block (OligoCF-5/20) 2%
  MIC: 32 µg/mL (≈ 96.6 µM)
[8]; G-block (OligoCF-5/20) 6%
  MIC: > 1020 µg/mL
[8]; G-block (OligoCF-5/20) 10%
  MIC: > 1020 µg/mL
[9]; [21]
  MIC: > 8 µg/mL
[9]; [22]
  MIC: > 8 µg/mL
[9]; [23]
  MIC: > 8 µg/mL
[9]; [24]
  MIC: > 8 µg/mL
[9]; [25]
  MIC: 64 µg/mL (≈ 193 µM)
[9]; [26]
  MIC: 64 µg/mL (≈ 193 µM)
[9]; [27]
  MIC: 64 µg/mL (≈ 193 µM)
[9]; [28]
  MIC: 32 µg/mL (≈ 96.6 µM)
[9]; [29]
  MIC: 32 µg/mL (≈ 96.6 µM)
[9]; [30]
  MIC: > 1020 µg/mL
[9]; [31]
  MIC: > 1020 µg/mL

## C[C@@H](O)[C@H]1C(=O)N2C(C(=O)O)=C(SCCN=CN)C[C@H]12 [Imipenem]
[3]; [10]
  MIC: 2 µg/mL (≈ 6.68 µM)
[3]; [11]
  MIC: 2 µg/mL (≈ 6.68 µM)
[3]; [12]
  MIC: 2 µg/mL (≈ 6.68 µM)
[3]; [13]
  MIC: < 2 µg/mL
MDR Providencia stuartii; G-block (OligoCF-5/20) 0%
  MIC: 16 µg/mL (≈ 53.4 µM)
MDR Providencia stuartii; G-block (OligoCF-5/20) 2%
  MIC: 16 µg/mL (≈ 53.4 µM)
MDR Providencia stuartii; G-block (OligoCF-5/20) 6%
  MIC: 16 µg/mL (≈ 53.4 µM)
MDR Providencia stuartii; G-block (OligoCF-5/20) 10%
  MIC: 8 µg/mL (≈ 26.7 µM)
[4]; G-block (OligoCF-5/20) 0%
  MIC: < 2 µg/mL
[4]; G-block (OligoCF-5/20) 2%
  MIC: < 2 µg/mL
[4]; G-block (OligoCF-5/20) 6%
  MIC: < 2 µg/mL
[4]; G-block (OligoCF-5/20) 10%
  MIC: < 2 µg/mL
[5]; [14]
  MIC: > 16 µg/mL
[5]; [15]
  MIC: 16 µg/mL (≈ 53.4 µM)
[5]; [16]
  MIC: 16 µg/mL (≈ 53.4 µM)
[5]; [17]
  MIC: 16 µg/mL (≈ 53.4 µM)
Streptococcus oralis; [18]
  MIC: < 0.0312 µg/mL
Streptococcus oralis; G-block (OligoCF-5/20) 2%, read-out: MIC
  MIC: 16 µg/mL (≈ 53.4 µM)
Streptococcus oralis; [19]
  MIC: 1 µg/mL (≈ 3.34 µM)
Streptococcus oralis; [20]
  MIC: < 0.0312 µg/mL
[8]; G-block (OligoCF-5/20) 0%
  MIC: 0.0625 µg/mL (≈ 0.209 µM)
[8]; G-block (OligoCF-5/20) 2%
  MIC: 0.0625 µg/mL (≈ 0.209 µM)
[8]; G-block (OligoCF-5/20) 6%
  MIC: 0.0312 µg/mL (≈ 0.104 µM)
[8]; G-block (OligoCF-5/20) 10%
  MIC: < 0.0312 µg/mL
[9]; [21]
  MIC: < 2 µg/mL
[9]; [22]
  MIC: < 2 µg/mL
[9]; [23]
  MIC: < 2 µg/mL
[9]; [24]
  MIC: < 2 µg/mL
[9]; Klebsiella pneumoniae (IR25, India, V6) MDR, G-block (OligoCF-5/20) 0%
  MIC: < 2 µg/mL
[9]; [25]
  MIC: 2 µg/mL (≈ 6.68 µM)
[9]; [26]
  MIC: 2 µg/mL (≈ 6.68 µM)
[9]; [27]
  MIC: 2 µg/mL (≈ 6.68 µM)
[9]; [28]
  MIC: 8 µg/mL (≈ 26.7 µM)
[9]; [29]
  MIC: 16 µg/mL (≈ 53.4 µM)
[9]; [30]
  MIC: 16 µg/mL (≈ 53.4 µM)
[9]; [31]
  MIC: 8 µg/mL (≈ 26.7 µM)
